#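 Results reflect a 48-hour exposure of cells in 96-well plates to compound at five concentrations. GI50 = concentration required for 50% inhibition of growth.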 Activity calls are given as the source filed them. Rule as the data show it: active = GI50 up to about 1.1 µM and inactive = higher.
# Assays:
# Assay in all cases: DTP human tumour cell line panel, 48 h
# [1] = tested on: MDA-N
# [2] = tested on: MDA-MB-231
# [3] = tested on: OVCAR-5
# [4] = tested on: NCI/ADR-RES
# [5] = tested on: NCI-H522
# [6] = tested on: K562
# [7] = tested on: OVCAR-3
# [8] = tested on: NCI-H460
# [9] = tested on: SNB-19
# [10] = tested on: MCF7
# [11] = tested on: HCC 2998
# [12] = tested on: UO-31
# [13] = tested on: HL-60
# [14] = tested on: A549
# [15] = tested on: RPMI-8226
# [16] = tested on: SF-295
# [17] = tested on: HT-29
# [18] = tested on: 786-0
# [19] = tested on: SK-MEL-28
# [20] = tested on: OVCAR-4
SMILES,GI50 [1],GI50 [2],GI50 [3],GI50 [4],GI50 [5],GI50 [6],GI50 [7],GI50 [8],GI50 [9],GI50 [10],GI50 [11],GI50 [12],GI50 [13],GI50 [14],GI50 [15],GI50 [16],GI50 [17],GI50 [18],GI50 [19],GI50 [20]
Cc1nc2cc(Cl)c(N)cc2[nH]1,> 100 µM (inactive),> 100 µM (inactive),> 100 µM (inactive),> 100 µM (inactive),> 100 µM (inactive),> 100 µM (inactive),> 100 µM (inactive),> 100 µM (inactive),> 100 µM (inactive),> 100 µM (inactive),> 10 µM (inactive),> 100 µM (inactive),> 100 µM (inactive),> 100 µM (inactive),> 100 µM (inactive),> 100 µM (inactive),> 100 µM (inactive),> 100 µM (inactive),> 100 µM (inactive),–
C=C1COC(O)(C2OCOC(C3CC(=O)NC(=O)C3)C2O)C1C (centres undefined),0.0034 µM (active),0.00847 µM (active),< 0.0126 µM (active),0.017 µM (active),0.000716 µM (active),0.00316 µM (active),0.00356 µM (active),0.00413 µM (active),0.00233 µM (active),0.00268 µM (active),0.00278 µM (active),0.00105 µM (active),0.00303 µM (active),0.00221 µM (active),0.00269 µM (active),0.00305 µM (active),0.00278 µM (active),0.00512 µM (active),0.00573 µM (active),0.00342 µM (active)
CC(=O)CCC(=O)C(=[N+]=[N-])S(=O)(=O)c1ccccc1,> 100 µM (inactive),> 100 µM (inactive),> 100 µM (inactive),> 100 µM (inactive),45.8 µM (inactive),> 100 µM (inactive),> 100 µM (inactive),> 100 µM (inactive),> 100 µM (inactive),> 100 µM (inactive),> 100 µM (inactive),> 100 µM (inactive),> 100 µM (inactive),> 100 µM (inactive),> 100 µM (inactive),> 100 µM (inactive),> 100 µM (inactive),> 100 µM (inactive),> 100 µM (inactive),–
Cn1c2ccccc2c2c(=O)[nH]c(=O)[nH]c21,> 100 µM (inactive),> 100 µM (inactive),> 100 µM (inactive),> 100 µM (inactive),> 100 µM (inactive),> 100 µM (inactive),> 100 µM (inactive),–,> 100 µM (inactive),> 100 µM (inactive),> 100 µM (inactive),> 100 µM (inactive),> 100 µM (inactive),> 100 µM (inactive),> 100 µM (inactive),> 100 µM (inactive),> 100 µM (inactive),> 100 µM (inactive),> 100 µM (inactive),–
CCCCc1ccc(Nc2nc(OC)c3ncn(C4CC(O)C(CO)O4)c3n2)cc1 (centres undefined),15.5 µM (inactive),17.7 µM (inactive),35.4 µM (inactive),27 µM (inactive),1.86 µM (inactive),6.15 µM (inactive),22.4 µM (inactive),16.4 µM (inactive),19.2 µM (inactive),14.2 µM (inactive),6.44 µM (inactive),19.2 µM (inactive),2.05 µM (inactive),16.8 µM (inactive),27.2 µM (inactive),18.5 µM (inactive),19.2 µM (inactive),16.4 µM (inactive),–,18 µM (inactive)
COc1cc(O)c2c(=O)c(OC)c(-c3ccc4c(c3)OCO4)oc2c1,> 100 µM (inactive),> 37.3 µM (inactive),> 100 µM (inactive),> 100 µM (inactive),6.53 µM (inactive),–,–,6.01 µM (inactive),5.66 µM (inactive),> 100 µM (inactive),> 100 µM (inactive),> 100 µM (inactive),> 100 µM (inactive),> 28.8 µM (inactive),> 100 µM (inactive),14.4 µM (inactive),> 100 µM (inactive),15.3 µM (inactive),> 100 µM (inactive),–
CC(=O)CC(=O)N1CCOC1=O,> 10 µM (inactive),> 10 µM (inactive),> 10 µM (inactive),> 10 µM (inactive),–,> 10 µM (inactive),> 10 µM (inactive),> 10 µM (inactive),> 10 µM (inactive),> 10 µM (inactive),> 10 µM (inactive),> 10 µM (inactive),> 10 µM (inactive),> 10 µM (inactive),> 10 µM (inactive),> 10 µM (inactive),> 10 µM (inactive),> 10 µM (inactive),> 10 µM (inactive),> 10 µM (inactive)
O=c1oc2ccccc2cc1-c1nc2ccc([N+](=O)[O-])cc2o1,> 100 µM (inactive),> 100 µM (inactive),–,> 100 µM (inactive),> 100 µM (inactive),> 100 µM (inactive),> 100 µM (inactive),> 100 µM (inactive),30.2 µM (inactive),83.8 µM (inactive),> 100 µM (inactive),> 100 µM (inactive),> 100 µM (inactive),> 100 µM (inactive),> 100 µM (inactive),83.4 µM (inactive),67.6 µM (inactive),> 100 µM (inactive),> 100 µM (inactive),–

# From ChEMBL document CHEMBL1201862, “PubChem BioAssay data set” (2004)
